Laboratory results: ChEMBL document CHEMBL1201862, “PubChem BioAssay data set” (2004)
Calls of active or inactive are those of the source.

Legend:
cells [1] = type: functional, cell-based
[2] = target: T1, Nuclear receptor subfamily 0 group B member 1 (Homo sapiens, UniProt P51843); type: functional, cell-based;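 also: HEK293T cells transfected with SF-1 and DAX-1 plus StAR promoter luciferase reporter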
T1 sequence (P51843 whole entry): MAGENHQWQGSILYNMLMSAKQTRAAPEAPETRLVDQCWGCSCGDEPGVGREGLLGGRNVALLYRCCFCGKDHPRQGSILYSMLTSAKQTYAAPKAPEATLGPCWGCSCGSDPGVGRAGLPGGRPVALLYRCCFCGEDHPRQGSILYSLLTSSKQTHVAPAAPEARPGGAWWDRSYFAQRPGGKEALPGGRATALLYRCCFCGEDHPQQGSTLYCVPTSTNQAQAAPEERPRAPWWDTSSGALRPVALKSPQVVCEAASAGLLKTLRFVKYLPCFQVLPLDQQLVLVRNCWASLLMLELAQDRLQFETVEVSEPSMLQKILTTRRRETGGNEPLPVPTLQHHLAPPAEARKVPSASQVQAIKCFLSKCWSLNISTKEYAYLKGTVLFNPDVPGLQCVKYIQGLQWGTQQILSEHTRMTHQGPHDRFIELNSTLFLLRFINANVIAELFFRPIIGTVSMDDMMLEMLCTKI

[3] = nonselective StAR promoter luciferase inhibitors – cell-based, luminescence, luciferase reporter, counter-screen for LRH-1 inverse agonist project, dose response (AID 651969); type: functional
[4] = target: Nuclear receptor subfamily 5 group A member 2 (Homo sapiens, UniProt O00482); type: functional, cell-based;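 also: HEK293T cells transfected with LRH-1 and a StAR promoter luciferase reporter; potency for inhibitors that lower LRH-1 driven reporter light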
Chain of Nuclear receptor subfamily 5 group A member 2 (O00482 whole entry): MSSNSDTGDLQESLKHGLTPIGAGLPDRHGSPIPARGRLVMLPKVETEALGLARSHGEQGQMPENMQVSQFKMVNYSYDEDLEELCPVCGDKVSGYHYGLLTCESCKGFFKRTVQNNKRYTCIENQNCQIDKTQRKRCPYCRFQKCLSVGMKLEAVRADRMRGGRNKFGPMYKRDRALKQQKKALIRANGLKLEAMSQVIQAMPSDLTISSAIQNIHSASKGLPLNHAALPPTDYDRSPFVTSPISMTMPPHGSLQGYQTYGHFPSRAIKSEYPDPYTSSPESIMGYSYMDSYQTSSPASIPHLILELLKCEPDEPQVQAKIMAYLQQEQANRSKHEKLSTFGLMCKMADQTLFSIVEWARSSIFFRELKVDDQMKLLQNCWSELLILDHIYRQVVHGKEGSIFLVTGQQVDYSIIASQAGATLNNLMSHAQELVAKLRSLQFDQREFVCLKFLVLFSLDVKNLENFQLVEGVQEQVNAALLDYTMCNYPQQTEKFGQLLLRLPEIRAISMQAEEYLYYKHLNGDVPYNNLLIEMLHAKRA

Steroidogenic factor 1 = Steroidogenic factor 1 (Homo sapiens, UniProt Q13285); test: Counterscreen for inverse agonists of the liver receptor homolog-1 (LRH-1; NR5A2): Luminescence-based cell-based high throughput dose response assay to identify inverse agonists of the Steroidogenic Factor 1 Nuclear Receptor (SF1; NR5A1).; type: functional
Chain of Steroidogenic factor 1 (Q13285 whole entry): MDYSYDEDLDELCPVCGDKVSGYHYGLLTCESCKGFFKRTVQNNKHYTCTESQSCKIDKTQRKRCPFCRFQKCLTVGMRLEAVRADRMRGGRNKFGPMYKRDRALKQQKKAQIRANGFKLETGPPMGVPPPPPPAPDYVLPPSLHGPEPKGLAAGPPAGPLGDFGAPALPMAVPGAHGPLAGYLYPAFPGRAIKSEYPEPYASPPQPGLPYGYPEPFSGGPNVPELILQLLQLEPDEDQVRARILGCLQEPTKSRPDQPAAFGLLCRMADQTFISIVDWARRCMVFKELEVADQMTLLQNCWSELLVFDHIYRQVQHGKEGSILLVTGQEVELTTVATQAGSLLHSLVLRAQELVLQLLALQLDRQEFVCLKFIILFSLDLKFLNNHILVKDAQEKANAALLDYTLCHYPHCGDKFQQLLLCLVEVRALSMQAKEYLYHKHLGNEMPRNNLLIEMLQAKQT

[5] = potency of ADAM10 substrate cleavage blockers – biochemical, QFRET, dose response (AID 743254);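 also: ADAM10 enzyme with the DM2 quenched FRET peptide as substrate; EDANS fluorescence gain as the protease cuts the substrate; inhibitor potency against ADAM10 proteolytic activity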
[6] = target: T2, Disintegrin and metalloproteinase domain-containing protein 17 (Homo sapiens, UniProt P78536); test: inhibition of ADAM17 substrate cleavage – biochemical, quenched FRET substrate, counter-screen for ADAM10 exosite inhibitor project, dose response (AID 743253)
T2 sequence (P78536 whole entry, the tested form may be a part): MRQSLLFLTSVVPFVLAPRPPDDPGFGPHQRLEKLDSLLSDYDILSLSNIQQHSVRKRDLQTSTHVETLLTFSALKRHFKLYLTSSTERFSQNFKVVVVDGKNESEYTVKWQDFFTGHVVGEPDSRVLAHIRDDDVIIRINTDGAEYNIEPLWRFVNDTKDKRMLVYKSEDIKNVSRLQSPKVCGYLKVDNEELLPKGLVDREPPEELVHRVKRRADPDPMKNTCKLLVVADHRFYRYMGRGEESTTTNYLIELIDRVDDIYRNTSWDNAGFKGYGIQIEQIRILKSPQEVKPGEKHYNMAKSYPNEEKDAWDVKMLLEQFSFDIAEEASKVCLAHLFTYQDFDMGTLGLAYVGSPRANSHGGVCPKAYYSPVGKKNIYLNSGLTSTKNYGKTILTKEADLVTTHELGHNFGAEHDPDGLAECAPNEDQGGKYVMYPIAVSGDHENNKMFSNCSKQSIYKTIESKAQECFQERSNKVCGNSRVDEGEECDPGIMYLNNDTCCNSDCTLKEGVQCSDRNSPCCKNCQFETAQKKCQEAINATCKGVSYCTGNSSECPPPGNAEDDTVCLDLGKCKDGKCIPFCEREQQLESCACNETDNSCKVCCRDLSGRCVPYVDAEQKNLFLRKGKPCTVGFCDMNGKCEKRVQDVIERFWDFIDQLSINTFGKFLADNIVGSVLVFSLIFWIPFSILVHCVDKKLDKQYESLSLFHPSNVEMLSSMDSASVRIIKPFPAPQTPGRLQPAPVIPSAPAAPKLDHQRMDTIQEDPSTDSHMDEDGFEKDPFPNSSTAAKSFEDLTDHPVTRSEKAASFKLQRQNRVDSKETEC

[7] = target: T2, Disintegrin and metalloproteinase domain-containing protein 17; test: exosite inhibitors of ADAM17, dose response, biochemical (AID 743260)
[8] = inhibition of ADAM10 peptide cleavage – biochemical, FRET peptide substrate, recombinant human ADAM10, selectivity assay for ADAM17 exosite inhibitor project, dose response (AID 743259);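 also: ADAM10 enzyme cleaving a FRET peptide substrate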
[9] = target: T3, Corticotropin-releasing factor receptor 2/Corticotropin-releasing factor-binding protein (Homo sapiens, UniProt P24387+Q13324); test: Dose Response confirmation of uHTS hits for small molecule antagonists of the CRF-binding protein and CRF-R2 receptor complex.; type: functional; details: read-out: IC50_Mean
T3 sequence (Q13324 whole entry): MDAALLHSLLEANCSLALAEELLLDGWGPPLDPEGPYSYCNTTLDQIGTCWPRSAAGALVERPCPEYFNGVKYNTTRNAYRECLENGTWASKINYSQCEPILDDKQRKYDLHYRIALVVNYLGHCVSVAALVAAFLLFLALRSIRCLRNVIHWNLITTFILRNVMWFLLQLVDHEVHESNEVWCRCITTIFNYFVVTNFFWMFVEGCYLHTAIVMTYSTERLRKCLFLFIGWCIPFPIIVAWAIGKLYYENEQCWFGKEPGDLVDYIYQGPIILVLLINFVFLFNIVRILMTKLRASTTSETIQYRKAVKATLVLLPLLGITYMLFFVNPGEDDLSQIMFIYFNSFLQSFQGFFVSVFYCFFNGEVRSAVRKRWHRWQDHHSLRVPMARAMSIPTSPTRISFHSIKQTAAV
T3 sequence (P24387 whole entry): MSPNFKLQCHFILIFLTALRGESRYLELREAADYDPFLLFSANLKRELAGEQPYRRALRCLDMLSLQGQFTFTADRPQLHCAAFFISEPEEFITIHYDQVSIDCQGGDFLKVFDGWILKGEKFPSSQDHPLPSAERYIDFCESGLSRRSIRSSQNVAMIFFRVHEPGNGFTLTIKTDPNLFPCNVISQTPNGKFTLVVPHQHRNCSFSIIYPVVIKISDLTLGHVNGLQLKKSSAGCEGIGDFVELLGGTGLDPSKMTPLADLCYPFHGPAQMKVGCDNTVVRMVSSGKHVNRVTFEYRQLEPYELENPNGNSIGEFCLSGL

[10] = target: T3, Corticotropin-releasing factor receptor 2/Corticotropin-releasing factor-binding protein; test: activators of CRF receptor 2 with binding protein – uHTS hits, confirmation (AID 602473); type: functional; details: read-out: EC50_Mean
[11] = blockers of CRF-binding protein–CRF-R2 complex – cell-based, uHTS hits, 384-well, dose response (AID 651639); type: functional, Homo sapiens; details: read-out: IC50_Mean
[12] = target: T4, Oxysterols receptor LXR-beta (Homo sapiens, UniProt P55055); type: functional, cell-based;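 also: agonist activity at LXR measured by a cell-based luminescence readout across a dose range, run as a counterscreen for daf-12 agonists; HEK293 cells with Gal4-LXR fusion and GAL4-driven luciferase reporter; potency for activation of Gal4-LXR reporter so compounds are agonists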
T4 sequence (P55055 whole entry): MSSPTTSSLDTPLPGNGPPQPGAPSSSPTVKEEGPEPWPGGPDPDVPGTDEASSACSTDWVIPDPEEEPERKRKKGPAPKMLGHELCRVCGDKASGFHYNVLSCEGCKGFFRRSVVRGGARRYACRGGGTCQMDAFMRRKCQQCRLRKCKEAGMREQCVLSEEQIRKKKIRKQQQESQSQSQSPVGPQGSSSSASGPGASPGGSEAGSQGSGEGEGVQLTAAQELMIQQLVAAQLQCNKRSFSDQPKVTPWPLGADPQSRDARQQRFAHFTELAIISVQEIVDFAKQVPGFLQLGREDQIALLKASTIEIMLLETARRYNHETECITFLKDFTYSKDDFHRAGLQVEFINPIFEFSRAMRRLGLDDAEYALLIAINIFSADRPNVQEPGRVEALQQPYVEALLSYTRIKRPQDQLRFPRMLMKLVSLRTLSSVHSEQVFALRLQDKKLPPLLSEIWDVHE

Caspase-6 = target: T5, Caspase-6 (Homo sapiens, UniProt P55212); test: inhibition of CASP6 peptide cleavage – biochemical, VEID-R110 fluorescence, cherry-pick, dose response (AID 720632)
T5 sequence (P55212 whole entry): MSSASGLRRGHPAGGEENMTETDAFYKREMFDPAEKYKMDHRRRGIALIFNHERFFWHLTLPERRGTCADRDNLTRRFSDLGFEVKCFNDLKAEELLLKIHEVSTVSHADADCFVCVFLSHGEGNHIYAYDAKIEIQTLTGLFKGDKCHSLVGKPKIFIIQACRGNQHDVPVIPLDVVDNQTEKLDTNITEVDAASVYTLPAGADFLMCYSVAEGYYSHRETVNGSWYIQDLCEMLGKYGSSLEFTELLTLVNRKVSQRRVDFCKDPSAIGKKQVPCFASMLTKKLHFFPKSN

[13] = Luminescence Cell-Based Dose Response HTS to Identify Inhibitors of 5'UTR Stem-Loop Driven Prion Protein mRNA Translation in H4 Neuroglioblastoma Cells. [Related pubchem assays: 1827 (Project Summary), 1813 (Primary HTS)]; type: functional
Streptococcus = test: GAS UMAA2166 growth inhibition – luminescence, BacTiterGlo, counter-screen for streptokinase expression inhibitor project, dose response (AID 1915); type: functional, organism-based;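 also: potency for reduction of bacterial viability or growth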
[14] = alpha-synuclein stem-loop luciferase translation blockers – H4 neuroglioma cells, luminescence, confirmation (AID 1988); type: functional, cell-based
[15] = test system: Streptococcus sp. 'group A'; test: Streptococcus pyogenes SK(-)GAS viability under kanamycin – luminescence, BacTiterGlo, confirmation, counter-screen for streptokinase expression inhibitor project, dose response (AID 1900); type: functional, organism-based
Streptokinase A = target: T6, Streptokinase A (Streptococcus pyogenes serotype M1, UniProt P10520); test: viability-normalized secreted streptokinase activity reduction – plasminogen activation absorbance, OD405, dose response (AID 1914); type: functional, Streptococcus pyogenes M1 GAS;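 also: secreted streptokinase activity via plasminogen activation per viability signal from cell pellet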
T6 sequence (P10520 whole entry): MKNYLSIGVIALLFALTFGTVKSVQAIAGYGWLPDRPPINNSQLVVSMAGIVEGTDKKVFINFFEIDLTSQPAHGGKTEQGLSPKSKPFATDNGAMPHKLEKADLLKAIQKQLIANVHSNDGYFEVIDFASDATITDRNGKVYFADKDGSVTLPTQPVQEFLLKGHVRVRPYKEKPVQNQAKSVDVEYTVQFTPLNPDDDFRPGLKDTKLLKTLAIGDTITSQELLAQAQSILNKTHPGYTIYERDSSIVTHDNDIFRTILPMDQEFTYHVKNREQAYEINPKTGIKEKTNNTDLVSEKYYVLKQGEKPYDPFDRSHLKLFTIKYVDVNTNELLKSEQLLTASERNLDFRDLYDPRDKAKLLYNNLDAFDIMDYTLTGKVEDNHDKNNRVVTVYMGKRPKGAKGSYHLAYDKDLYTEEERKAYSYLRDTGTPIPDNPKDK

[16] = luciferase reporter signal suppression in cells – H4 neuroglioma cells, luminescence, dose response (AID 1990); type: functional, cell-based
cells [17] = type: functional, cell-based; remark: listed apart in the source
cells [18] = type: functional, cell-based; remark: listed apart in the source

**Q.** Which results are given for `Cc1cc(C(=O)CSc2nnc(N)s2)c(C)n1C1CC1`?
**A.** IC50 (cells [1]): > 67.6 µM (inactive); IC50 [2]: > 67.6 µM (inactive)

**Q.** For `COc1ccccc1NC(=O)CN1CCN(CC(=O)Nc2ccc3c(c2)OCCO3)CC1`, which IC50 [3] is on record?
**A.** 35.9 µM (inactive)

**Q.** And the IC50 [4]?
**A.** 4.02 µM (active)

**Q.** And the IC50 (Steroidogenic factor 1)?
**A.** 0.985 µM (active)

**Q.** With `Cc1ccc(NC(=O)c2cc3c(s2)CCCC3)cc1S(=O)(=O)Nc1ccccc1Cl` as the compound, how does the IC50 [5] read?
**A.** > 69.5 µM (inactive)

**Q.** What about the IC50 [6] of the same compound?
**A.** > 69.5 µM (inactive)

**Q.** Which results are given for `CNC(=O)C1CC(=O)N=C(N/N=C(\C)c2cccs2)S1` (stereo not drawn)?
**A.** IC50 [7]: > 69.5 µM (inactive); IC50 [8]: > 23.2 µM (inactive)

**Q.** With `COc1ccc(C(=O)Nc2cc(=O)n(C)c(=O)n2C)cc1` as the compound, how does the IC50 [9] read?
**A.** < 0.368 µM (active)

**Q.** What about the EC50 [10] of the same compound?
**A.** > 53 µM (inactive)

**Q.** And the IC50 [11]?
**A.** > 20 µM (inactive)

**Q.** Which IC50 [3] does the source give for `CCOc1ccc(OCCC(=O)OCC(=O)Nc2ccc3c(c2)OCCO3)cc1` here?
**A.** 35.9 µM (inactive)

**Q.** And the IC50 [4]?
**A.** 35.9 µM (inactive)

**Q.** And the IC50 (Steroidogenic factor 1)?
**A.** 12.7 µM (inactive)

**Q.** With `CCOc1ccc(Cl)cc1S(=O)(=O)n1nnc2ccccc21` as the compound, how does the IC50 [9] read?
**A.** 3.56 µM (active)

**Q.** And the EC50 [10]?
**A.** > 53 µM (inactive)

**Q.** What about the IC50 [11] of the same compound?
**A.** 2.16 µM (active)

**Q.** With `Cc1ccsc1C(=O)OCC(=O)c1cc(C)n(C)c1C` as the compound, how does the IC50 (cells [1]) read?
**A.** > 67.6 µM (inactive)

**Q.** And the IC50 [2]?
**A.** > 0.278 µM (active)

**Q.** For `CCN(CC)C1Oc2cc3c(cc2C(c2cccc(OC)c2O)C1C)OCO3` (stereo not drawn), which IC50 [9] is on record?
**A.** 2.99 µM (active)

**Q.** What about the EC50 [10] of the same compound?
**A.** > 53 µM (inactive)

**Q.** And the IC50 [11]?
**A.** 5.28 µM (active)

**Q.** For `CC(=O)c1cccc(NC(=O)C(OC(=O)c2ccccc2NS(=O)(=O)c2cccs2)c2ccccc2)c1` (stereo not drawn), which IC50 [5] is on record?
**A.** > 69.5 µM (inactive)

**Q.** What about the IC50 [7] of the same compound?
**A.** > 69.5 µM (inactive)

**Q.** What about the IC50 [6] of the same compound?
**A.** > 69.5 µM (inactive)

**Q.** With `CC1CCc2c(sc(NC(=O)C3=COCCO3)c2C(N)=O)C1` (stereo not drawn) as the compound, how does the EC50 [12] read?
**A.** > 67.5 µM (inactive)

**Q.** With `c1csc(-c2nnc(-c3ccc(N4CCOCC4)cc3)o2)c1` as the compound, how does the EC50 [12] read?
**A.** > 67.5 µM (inactive)

**Q.** For `NC(=O)c1c(NC(=O)C2CC=CCC2C(=O)O)sc2c1CCCCC2` (stereo not drawn), which AC50 (Caspase-6) is on record?
**A.** 5.79 µM (active)

**Q.** For `CC1CCC2(CC1)NC(=O)N(CC(=O)Nc1ccc3c(c1)OCCCO3)C2=O` (stereo not drawn), which IC50 [3] is on record?
**A.** 35.9 µM (inactive)

**Q.** And the IC50 [4]?
**A.** 6.2 µM (active)

**Q.** What about the IC50 (Steroidogenic factor 1) of the same compound?
**A.** 1.02 µM (active)

**Q.** Which EC50 [12] does the source give for `c1ccc(Nc2nc(-c3cccnc3)cs2)nc1` here?
**A.** > 67.6 µM (inactive)

**Q.** What does the source list for `Cn1cc(C(=O)c2ccc(Cl)cc2Cl)cc1C(=O)NN=C(N)COc1ccc(Cl)cc1Cl`?
**A.** EC50 [13]: 24.3 µM (active); IC50 [5]: > 69.5 µM (inactive); EC50 (Streptococcus): 43.9 µM (active); EC50 [14]: 9.69 µM (active); EC50 [15]: 0.927 µM (active); EC50 (Streptokinase A): > 150 µM (not active); IC50 [6]: > 69.5 µM (inactive); EC50 [16]: > 120 µM (not active)

**Q.** What does the source list for `O=C(Cc1nnc(O)nc1O)N/N=C/c1ccccc1O`?
**A.** IC50 (cells [17]): > 29.9 µM (inactive); EC50 (cells [18]): > 29.9 µM (inactive)
